Data taken from patent US20230390353A1, “PHARMACEUTICAL COMPOSITION FOR TREATING MYOCARDIAL ISCHEMIA AND PREPARATION METHOD THEREFOR” (TASLY PHARMACEUTICAL GROUP CO., LTD., priority 2021, published 2023).

Columns and labels:
[1] = system: rats with myocardial ischemia; assay: Weight-bearing swimming duration test in rats with myocardial ischemia; format: in vivo, SD rats; conditions: gavage, Day 30, 60 min after dose, 5% load
Excerpt: 110 experimental animals were purchased, of which 10 animals were set as a sham-operation group, and 100 animals were used for modeling left anterior descending coronary artery ligation. After modeling, surviving rats were randomly divided into a vehicle control group, a traditional Chinese medicine group, a ranolazine group 1, a ranolazine group 2, a ranolazine group 3, a pharmaceutical composition group 1 of the present invention and a pharmaceutical composition group 2 of the present invention according to body weight. After therapeutic administration for 28 days, the rats from the vehicle control group were given the same amount of menstruum by gavage. On the 28th day of intragastric administration, 6 rats in each group were randomly selected for echocardiography. After intragastric administration of 60 min on Day 30, a weight-bearing swimming test was performed, and animal samples were taken after the end of weight-bearing swimming. After intragastric administration of 60 min on Day 30, the experimental animals were subjected to the weight-bearing swimming test. After weighing, the rats, fixed a 5% weight of its body weight on the tail were placed in a transparent container filled with water with an inner diameter of 19 cm and a water depth of 30 cm. The water temperature was 25±2° C. The rats swimming to exhaustion were judged by the standard of losing balance and the head submerged for more than 10 seconds. The time of swimming was recorded as the time of weight-bearing swimming.

myocardial Na^+—K^+-ATP = assay: Energy metabolism related enzyme detection, myocardial Na+-K+-ATP activity; format: in vivo, SD rats; conditions: myocardium of myocardial ischemia rats after treatment
Excerpt: (§1) 110 experimental animals were purchased, of which 10 animals were set as a sham-operation group, and 100 animals were used for modeling left anterior descending coronary artery ligation. After modeling, surviving rats were randomly divided into a vehicle control group, a traditional Chinese medicine group, a ranolazine group 1, a ranolazine group 2, a ranolazine group 3, a pharmaceutical composition group 1 of the present invention and a pharmaceutical composition group 2 of the present invention according to body weight. After therapeutic administration for 28 days, the rats from the vehicle control group were given the same amount of menstruum by gavage. On the 28th day of intragastric administration, 6 rats in each group were randomly selected for echocardiography. After intragastric administration of 60 min on Day 30, a weight-bearing swimming test was performed, and animal samples were taken after the end of weight-bearing swimming.

[2] = system: myocardial Ca^2+—Mg^2+-ATP; assay: Energy metabolism related enzyme detection, myocardial Ca2+-Mg2+-ATP activity; format: in vivo, SD rats; conditions: myocardium of myocardial ischemia rats after treatment
Excerpt: as §1

[3] = system: rats with myocardial ischemia; assay: Myocardial histopathology detection in rats with myocardial ischemia; format: in vivo, SD rats; conditions: myocardial pathology
Excerpt: as §1, with “swimming. […] The administration of the pharmaceutical composition of the present invention could reduce myocardial fibrosis to varying degrees, causing a certain protective effect on the ischemic myocardium, and the effect of the pharmaceutical composition group 2 of the present invention was better.” for “swimming.”

normal mice = assay: Weight-bearing swimming time in normal mice; format: in vivo; conditions: normal BALB/c mice, 7 days pre-administration, 30 min after last administration, 5% body weight load; ranolazine 205 mg/kg, traditional Chinese medicine 68 mg/kg, composition 34 + ranolazine 102 mg/kg
Description: According to the reference, 40 male mice are randomly divided into 4 groups (n=10): a normal group, a ranolazine group, a traditional Chinese medicine group and a pharmaceutical composition group of the present invention are administered in advance for 7 days, and the mice in the normal group are administered intragastrically with equivalent distilled water. Swimming tests are performed 30 min after the last administration. Mice are fixed a 5% weight of its body weight on the tail, and then placed in a large container filled with water of about 20 cm. Water should not be overfilled, so as to prevent mice from jumping out. The mice are forced to swim to exhaustion until they swim to death, and the time is recorded as the weight-bearing swimming time of the mice. See Table 5 for grouping and dose setting.

[4] = system: rats with myocardial ischemia; assay: Echocardiography (cardiac function) in rats with myocardial ischemia; format: in vivo, SD rats; conditions: Day 28, 60 min after gavage
Excerpt: as §1, with “After” for “110 experimental animals were purchased, of which 10 animals were set as a sham-operation group, and 100 animals were used for modeling left anterior descending coronary artery ligation. After”, “swimming. After intragastric administration of 60 min on Day 28, 6 rats in each group were randomly selected, and the cardiac function was detected by a portable b-ultrasound instrument. The changes of cardiac ejection fraction (EF) and E/A were detected.” for “swimming.”

SMILES: COc1ccccc1OCC(O)CN1CCN(CC(=O)Nc2c(C)cccc2C)CC1 (racemic) [Ranolazine, (±)-N-(2,6-dimethylphenyl)-4-[2-hydroxy-3-(2-methoxyphenoxy)propyl]-1-piperazine acetamide]
- Weight-bearing swimming duration ([1]; ranolazine group 1, 100 mg/kg): 1927 ± 1450 s
- Weight-bearing swimming duration ([1]; ranolazine group 2, 50 mg/kg): 1268 ± 513 s
- Weight-bearing swimming duration ([1]; ranolazine group 3, 25 mg/kg): 1108 ± 358 s
- Na^+—K^+-ATP (myocardial Na^+—K^+-ATP; ranolazine group 1, 100 mg/kg): 46.04 ± 8.57 µmol/h/g
- Na^+—K^+-ATP (myocardial Na^+—K^+-ATP; ranolazine group 2, 50 mg/kg): 47.10 ± 6.57 µmol/h/g
- Na^+—K^+-ATP (myocardial Na^+—K^+-ATP; ranolazine group 3, 25 mg/kg): 34.98 ± 9.26 µmol/h/g
- Ca^2+—Mg^2+-ATP ([2]; ranolazine group 1, 100 mg/kg): 37.99 ± 8.20 µmol/h/g
- Ca^2+—Mg^2+-ATP ([2]; ranolazine group 2, 50 mg/kg): 50.92 ± 6.18 µmol/h/g
- Ca^2+—Mg^2+-ATP ([2]; ranolazine group 3, 25 mg/kg): 29.96 ± 7.66 µmol/h/g
- Basically normal (number of cases) ([3]; ranolazine group 1, 100 mg/kg): 4 number of cases
- Mild (cardiac muscle fiber partially replaced by collagen fiber) ([3]; ranolazine group 1, 100 mg/kg): 1 number of cases
- Severe (decreased myocardial thickness, and occurrence of transmural myocardial infarction) ([3]; ranolazine group 1, 100 mg/kg): 1 number of cases
- Basically normal (number of cases) ([3]; ranolazine group 2, 50 mg/kg): 3 number of cases
- Mild (cardiac muscle fiber partially replaced by collagen fiber) ([3]; ranolazine group 2, 50 mg/kg): 1 number of cases
- Severe (decreased myocardial thickness, and occurrence of transmural myocardial infarction) ([3]; ranolazine group 2, 50 mg/kg): 2 number of cases
- Basically normal (number of cases) ([3]; ranolazine group 3, 25 mg/kg): 2 number of cases
- Mild (cardiac muscle fiber partially replaced by collagen fiber) ([3]; ranolazine group 3, 25 mg/kg): 2 number of cases
- Severe (decreased myocardial thickness, and occurrence of transmural myocardial infarction) ([3]; ranolazine group 3, 25 mg/kg): 2 number of cases
- Swimming time (normal mice): 3746 ± 1837 s
- E/A ([4]; ranolazine group 1, 100 mg/kg): 1.10 ± 0.09
- Ejection Fraction (EF %) ([4]; ranolazine group 1, 100 mg/kg): 55.32 ± 2.76 %
- E/A ([4]; ranolazine group 2, 50 mg/kg): 1.06 ± 0.13
- Ejection Fraction (EF %) ([4]; ranolazine group 2, 50 mg/kg): 50.52 ± 2.15 %
- E/A ([4]; ranolazine group 3, 25 mg/kg): 0.92 ± 0.08
- Ejection Fraction (EF %) ([4]; ranolazine group 3, 25 mg/kg): 45.03 ± 1.57 %
